The values below come from US20230312504A1, “QUINOLINE COMPOUNDS” (Guangzhou Baiyunshan Pharmaceutical Holdings Co., Ltd. …, priority 2020, published 2023).

One series concerns the target CYP2C19 (Homo sapiens (Human), UniProt P33261). As to the kind of experiment: CYP inhibition in human liver microsomes, CYP2C19. Type of series: in vitro ADME. As to conditions: 0.05-50 μM. The procedure: (§1) Mixed probe substrate of CYP isozymes were used to evaluate the inhibition of compounds of the present disclosure to human liver microsomal cytochrome P450 isoenzymes (CYP1A2, CYP2C9, CYP2C19, CYP2D6, and CYP3A4).
(§2) The testing compound was dissolved in DMSO to prepare a 10 mM stock solution. 178 μL of the mixture solution of human liver microsomes and substrate was added into non-inhibitor control (NIC) wells and test compound sample wells of the reaction plate, and the reaction plate was placed on ice. 2 μL of blank solvent and test compound working solution was taken from the dilution plate, respectively, and then added into the reaction plate (final concentration: 0.05-50 μM). The reaction plate was preheated in a 37±0.2° C. water bath for 10 minutes. 20 μL of cofactor solution was added into the reaction plate using a liquid handling workstation to initiate the reaction.
(§3) After 10 minutes, 400 μL of stop solution was added to the reaction plate to stop the reaction, and the reaction plate was placed on ice for 5 minutes. […] The peak areas of the substrate and product were detected by liquid chromatography tandem mass spectrometry (LC/MS/MS). […]
(§4) A nonlinear regression analysis of mean percentage activity of the test compound against concentration was performed using SigmaPlot (V.11). The IC50 value was calculated using a three- or four-parameter inverse logarithmic equation. […]
Background: Microsomes from liver hold many membrane-bound enzymes, among them those of drug oxidation.

The nature of series [1]: Microsome metabolic stability, mice. Type of series: in vitro ADME. To be noted: mouse; mice liver microsomes, 1 μM compound, 0.5 mg/mL; read-out: MMS CLint(liver)-M. The procedure:
(§5) To evaluate the Phase I metabolic stability of the test compound in animal and human liver microsomes.
(§6) 10 μL of the test compound working solution and 80 μL of microsome working solution (0.625 mg/mL liver microsome protein) were added to the reaction plate and NCF60 plate, respectively, while only microsome working solution was added to the Blank60 plate, then, the above incubation plates were placed in a 37° C. water bath for pre-incubation for approximately 10 minutes.
(§7) After the pre-incubation, 10 μL of a NADPH regeneration system working solution was added into each sample well of all the plates except the NCF60 plate and TO plate to start the reaction, and 10 μL of potassium phosphate buffer was added to each well of the NCF60 plate. The final reaction concentrations of the test sample or control sample were 1 μM, the concentration of the liver microsomes was 0.5 mg/mL.
(§8) After incubation for an appropriate time, 300 μL of a stop solution (acetonitrile solution containing 200 ng/mL tolbutamide) was added to each sample well to stop the reaction; stop solution and then NADPH regeneration system working solution were added to the TO plate in sequence.
(§9) All the sample plates were shaken and centrifuged at 3220 rpm for 20 min, and then 100 μL of supernatant was taken from each well and diluted with 300 μL of pure water for LC-MS/MS analysis. […]

Series [2] deals with human wild-type RET kinase (Homo sapiens (Human), UniProt P07949). As to the kind of experiment: 33P-labeled kinase activity assay, wild-type RET. It is filed as biochemical. As to conditions: 33P-ATP at Km concentration; read-out: RET(WT) IC50. The method, then: (§10) The inhibitory activity of the test compounds against human wild-type and V804M mutant RET kinase was evaluated by measuring IC50 values in a ^33P-labeled kinase activity assay (Reaction Biology Corp).
(§11) Buffer conditions: 20 mM hydroxyethyl-piperazine-ethanesulfonic acid (Hepes) (pH 7.5), 10 mM MgCl2, 1 mM ethylene glycol-bis(aminoethyl ether)-tetraacetic acid (EGTA), 0.02% polyoxyethylene lauryl ether (Brij35), 0.02 mg/mL BSA, 0.1 mM Na3VO4, 2 mM dithiothreitol (DTT), and 1% DMSO.
(§12) Compound handling: testing compounds were dissolved in 100% DMSO to specific concentration. Serial dilution can be conducted using Integra Viaflo Assist in DMSO.
(§13) Procedures: the substrate was dissolved in freshly prepared Reaction Buffer, the test kinase was added into the substrate solution and gently mixed. Compounds in DMSO were added into the above kinase reaction mixture by Acoustic technology (Echo550) and incubate for 20 minutes at room temperature. The concentrations of the compounds in the reaction solutions were 3 μM, 1 μM, 0.333 μM, 0.111 μM, 0.0370 μM, 0.0123 μM, 4.12 nM, 1.37 nM, 0.457 nM and 0.152 nM. […] The reaction was conducted for 120 minutes at room temperature, and radioactivity was detected by filter-binding method. Kinase activity data can be expressed as the percent remaining kinase activity in test samples compared to vehicle (DMSO only) reactions. […]

Another series has as its target CYP3A4 (Homo sapiens (Human), UniProt P08684). Put plainly: CYP inhibition in human liver microsomes, CYP3A4. It is filed as in vitro ADME. To be noted: 0.05-50 μM. The method, then: as §1, §2, §3, §4
Series [3] is described as follows: Microsome metabolic stability, rat. Type of series: in vitro ADME. As to conditions: rat liver microsomes, 1 μM compound, 0.5 mg/mL; read-out: MMS CLint(liver)-R. The method, then:
as §5, §6, §7, §8, §9

Series [4] can be described thus: Microsome metabolic stability, human. It is filed as in vitro ADME. As to conditions: human liver microsomes, 1 μM compound, 0.5 mg/mL; read-out: MMS CLint(liver)-H. The procedure:
as §5, §6, §7, §8, §9

Series [5] can be described thus: Microsome metabolic stability, cynomolgus monkey. As to conditions: cynomolgus monkey liver microsomes, 1 μM compound, 0.5 mg/mL; read-out: MMS CLint(liver)-C. Type of series: in vitro ADME. The method, then: as §5, §6, §7, §8, §9
A further series concerns the target CYP2C9 (Homo sapiens (Human), UniProt P11712). Put plainly: CYP inhibition in human liver microsomes, CYP2C9. Type of series: in vitro ADME. As to conditions: 0.05-50 μM. The method, then: as §1, §2, §3, §4
Series [6] can be described thus: Microsome metabolic stability, Beagle. Type of series: in vitro ADME. As to conditions: dog; Beagle liver microsomes, 1 μM compound, 0.5 mg/mL; read-out: MMS CLint(liver)-D. The method, then:
as §5, §6, §7, §8, §9

Series [7] concerns the target human V804M mutant RET kinase (Homo sapiens (Human), UniProt P07949, V804M). As to the kind of experiment: 33P-labeled kinase activity assay, V804M mutant RET. Type of series: biochemical. As to conditions: 33P-ATP at Km concentration. The method, then: as §10, §11, §12, §13
Series [8] in a line: Pharmacokinetics study of mice. To be noted: mouse, male CD-1 mice, plasma. Type of series: in vivo. The source says:
The purpose of this experiment was to study the pharmacokinetics of the test compound in the plasma of male CD-1 mice after intravenous injection and oral administration.
The animals were randomly divided into two groups with 2 males in each group. The compounds were formulated into prescribed preparations. Intravenous formulations were formulated with 5% DMS 0/95% (6% hydroxypropyl-β-cyclodextrin) to give a clear solution, and oral preparations were formulated with 0.1% Tween80/0.5% HPMC aqueous solution to give a homogeneous suspension.
Whole blood samples were collected from the saphenous vein of the animals 5 minutes, 15 minutes, 30 minutes, 1 hour, 2 hours, 4 hours, 8 hours, 12 hours, and 24 hours after administration. The whole blood sample was added to the centrifuge tube containing anticoagulant, and centrifuged at 3200 g for 10 minutes at 4° C. The supernatant of plasma was taken, frozen quickly on dry ice, and then stored in a −70±10° C. refrigerator until LC-MS/MS analysis.
WinNonlin™ Version 6.3.0 (Pharsight, Mountain View, Calif.) pharmacokinetic software was used to process the plasma drug concentration data of the compounds with a non-compartmental model. The peak concentration (Cmax), peak time (Tmax) and quantifiable end time were obtained directly from the blood drug concentration-time profile.
The following pharmacokinetic parameters were calculated using the log-linear trapezoid method: Plasma clearance rate (CL), volume of distribution (Vd), elimination phase half-life (T1/2), average residence time of drug in the body from 0 to the end time point (MRT0-last), average residence time of the drug in the body from 0 to infinite time (MRT0-inf), area under the time-plasma concentration curve from 0 to the end time point (AUC0_last), area under the time-plasma concentration curve from 0 to infinite time (AUC0-inf) and bioavailability (F).

The target in another series is CYP1A2 (Homo sapiens (Human), UniProt P05177). Put plainly: CYP inhibition in human liver microsomes, CYP1A2. As to conditions: 0.05-50 μM. Type of series: in vitro ADME. The procedure: as §1, §2, §3, §4
The next series deals with CYP2D6 (Homo sapiens (Human), UniProt P10635). As to the kind of experiment: CYP inhibition in human liver microsomes, CYP2D6. It is filed as in vitro ADME. As to conditions: 0.05-50 μM. The procedure: as §1, §2, §3, §4
Where [9] appears, read: 0.5 mg/kg, 0.5 mpk intravenous injection.
[10] abbreviates: 2.5 mg/kg, 2.5 mpk oral administration.

Chain of CYP2C19 (P33261 whole entry): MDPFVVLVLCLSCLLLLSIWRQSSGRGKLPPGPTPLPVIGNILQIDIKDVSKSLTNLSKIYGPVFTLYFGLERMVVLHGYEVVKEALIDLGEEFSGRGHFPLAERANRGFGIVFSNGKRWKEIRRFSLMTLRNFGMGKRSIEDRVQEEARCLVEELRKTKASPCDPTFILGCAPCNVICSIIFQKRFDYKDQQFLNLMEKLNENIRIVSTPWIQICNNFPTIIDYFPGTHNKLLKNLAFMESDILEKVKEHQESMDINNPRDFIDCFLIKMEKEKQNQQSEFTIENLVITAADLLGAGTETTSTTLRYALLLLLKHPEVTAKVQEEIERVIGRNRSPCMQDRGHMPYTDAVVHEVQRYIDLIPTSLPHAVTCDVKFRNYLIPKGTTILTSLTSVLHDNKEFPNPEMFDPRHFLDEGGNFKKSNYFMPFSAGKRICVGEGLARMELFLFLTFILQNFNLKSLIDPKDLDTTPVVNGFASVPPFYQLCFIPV
Chain of CYP1A2 (P05177 whole entry): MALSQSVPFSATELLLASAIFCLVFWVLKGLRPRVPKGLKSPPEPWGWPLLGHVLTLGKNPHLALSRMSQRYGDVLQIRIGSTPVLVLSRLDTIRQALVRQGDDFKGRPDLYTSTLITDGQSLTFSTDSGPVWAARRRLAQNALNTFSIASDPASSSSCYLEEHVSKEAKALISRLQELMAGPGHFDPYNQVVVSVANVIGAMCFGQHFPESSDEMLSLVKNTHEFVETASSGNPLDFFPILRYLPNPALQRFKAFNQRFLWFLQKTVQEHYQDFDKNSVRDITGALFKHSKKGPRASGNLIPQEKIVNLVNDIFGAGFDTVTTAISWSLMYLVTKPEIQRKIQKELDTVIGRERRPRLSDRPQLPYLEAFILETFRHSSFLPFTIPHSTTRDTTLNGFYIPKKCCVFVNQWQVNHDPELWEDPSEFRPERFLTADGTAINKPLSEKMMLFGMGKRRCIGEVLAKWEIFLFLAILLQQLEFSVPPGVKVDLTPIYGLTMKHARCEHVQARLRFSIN
Chain of human wild-type RET kinase (P07949 29-1114): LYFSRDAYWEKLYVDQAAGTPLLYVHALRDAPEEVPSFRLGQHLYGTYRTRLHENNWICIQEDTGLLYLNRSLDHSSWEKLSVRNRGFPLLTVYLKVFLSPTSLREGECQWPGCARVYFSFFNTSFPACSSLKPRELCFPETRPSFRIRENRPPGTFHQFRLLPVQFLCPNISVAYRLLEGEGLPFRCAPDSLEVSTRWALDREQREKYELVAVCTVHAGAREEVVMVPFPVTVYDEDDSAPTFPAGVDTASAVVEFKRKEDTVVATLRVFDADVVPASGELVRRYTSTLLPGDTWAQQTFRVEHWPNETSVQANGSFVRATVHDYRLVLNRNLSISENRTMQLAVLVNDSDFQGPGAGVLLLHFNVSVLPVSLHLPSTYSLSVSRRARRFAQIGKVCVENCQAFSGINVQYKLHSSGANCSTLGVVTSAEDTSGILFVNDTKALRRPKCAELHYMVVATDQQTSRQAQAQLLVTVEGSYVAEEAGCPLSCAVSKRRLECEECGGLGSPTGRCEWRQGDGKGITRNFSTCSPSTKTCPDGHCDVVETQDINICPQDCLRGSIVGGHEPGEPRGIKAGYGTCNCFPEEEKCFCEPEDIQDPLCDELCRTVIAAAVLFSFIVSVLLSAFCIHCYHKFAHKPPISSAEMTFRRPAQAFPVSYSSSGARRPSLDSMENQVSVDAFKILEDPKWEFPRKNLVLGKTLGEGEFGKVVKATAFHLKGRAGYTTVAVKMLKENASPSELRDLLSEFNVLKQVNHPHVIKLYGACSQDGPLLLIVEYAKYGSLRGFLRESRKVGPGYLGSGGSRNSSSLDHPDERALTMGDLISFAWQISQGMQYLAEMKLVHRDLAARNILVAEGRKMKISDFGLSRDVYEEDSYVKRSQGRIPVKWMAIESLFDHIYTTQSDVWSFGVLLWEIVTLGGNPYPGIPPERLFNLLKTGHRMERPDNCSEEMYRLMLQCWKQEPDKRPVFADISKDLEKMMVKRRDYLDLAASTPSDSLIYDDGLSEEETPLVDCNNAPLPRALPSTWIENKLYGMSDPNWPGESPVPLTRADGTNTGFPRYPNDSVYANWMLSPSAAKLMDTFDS
Chain of CYP2C9 (P11712 whole entry): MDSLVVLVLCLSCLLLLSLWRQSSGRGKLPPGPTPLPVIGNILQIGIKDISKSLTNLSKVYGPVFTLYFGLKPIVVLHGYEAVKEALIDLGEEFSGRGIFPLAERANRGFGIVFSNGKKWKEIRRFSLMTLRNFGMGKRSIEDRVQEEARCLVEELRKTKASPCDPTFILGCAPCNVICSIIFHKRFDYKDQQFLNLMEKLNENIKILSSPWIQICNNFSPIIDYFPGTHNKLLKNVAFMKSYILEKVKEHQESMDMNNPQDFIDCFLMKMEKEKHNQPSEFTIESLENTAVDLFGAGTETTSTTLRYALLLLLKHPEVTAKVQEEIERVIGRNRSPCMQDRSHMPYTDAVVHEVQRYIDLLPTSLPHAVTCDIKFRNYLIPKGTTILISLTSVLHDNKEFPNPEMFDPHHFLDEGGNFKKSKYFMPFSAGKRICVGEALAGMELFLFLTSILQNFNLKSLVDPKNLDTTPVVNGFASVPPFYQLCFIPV
Chain of CYP3A4 (P08684 whole entry): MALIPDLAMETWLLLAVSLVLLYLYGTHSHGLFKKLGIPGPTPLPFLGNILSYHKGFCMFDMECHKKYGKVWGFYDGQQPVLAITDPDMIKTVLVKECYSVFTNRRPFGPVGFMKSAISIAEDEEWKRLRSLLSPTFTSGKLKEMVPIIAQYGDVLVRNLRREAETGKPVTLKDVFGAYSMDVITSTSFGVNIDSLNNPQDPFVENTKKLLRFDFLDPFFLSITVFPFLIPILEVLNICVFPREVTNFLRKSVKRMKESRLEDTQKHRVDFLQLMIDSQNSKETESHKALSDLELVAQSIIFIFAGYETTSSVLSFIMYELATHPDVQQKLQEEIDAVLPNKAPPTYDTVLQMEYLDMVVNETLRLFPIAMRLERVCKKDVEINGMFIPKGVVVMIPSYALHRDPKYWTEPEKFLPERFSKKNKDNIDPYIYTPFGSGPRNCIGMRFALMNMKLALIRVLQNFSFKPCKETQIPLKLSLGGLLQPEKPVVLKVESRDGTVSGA
Chain of CYP2D6 (P10635 whole entry): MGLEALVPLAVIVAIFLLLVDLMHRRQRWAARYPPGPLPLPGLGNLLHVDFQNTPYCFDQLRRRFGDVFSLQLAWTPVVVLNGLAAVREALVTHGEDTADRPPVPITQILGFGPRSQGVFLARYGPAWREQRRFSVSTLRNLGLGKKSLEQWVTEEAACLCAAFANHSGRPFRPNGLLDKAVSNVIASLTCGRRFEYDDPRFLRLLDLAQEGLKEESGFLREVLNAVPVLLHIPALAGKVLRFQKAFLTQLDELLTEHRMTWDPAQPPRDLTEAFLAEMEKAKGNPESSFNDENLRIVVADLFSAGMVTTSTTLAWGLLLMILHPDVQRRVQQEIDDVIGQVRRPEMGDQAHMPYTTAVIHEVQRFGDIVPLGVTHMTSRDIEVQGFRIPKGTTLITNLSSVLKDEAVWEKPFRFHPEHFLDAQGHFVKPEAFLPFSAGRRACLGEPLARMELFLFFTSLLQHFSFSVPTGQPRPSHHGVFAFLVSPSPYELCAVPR
Chain of human V804M mutant RET kinase (P07949 29-1114 V804M): as the sequence (P07949 29-1114) above, with V776M counted along it

As a reminder, the IC50 is the concentration at which inhibition is half-maximal. As usually defined, the AUC(0-inf) is total exposure, with the tail of the curve extrapolated. What is called clearance is the rate of elimination divided by the concentration. A word on the half-life: it is the time needed for the level to fall by half in the phase considered. The Cmax is the highest concentration seen after dosing. For orientation: Tmax means the time from dosing to the highest level. On to `CCN1CCN(Cc2cc(F)c(NC(=O)Cc3ccc(-c4cnc5cc(OC)c(OC)cc5c4)nc3)cc2C(F)(F)F)CC1` [Compound 1], for which the concentration for half-maximal inhibition (IC50) is 16.9 µM against CYP2C19; 0.0005 µM in [2]; greater than 50 µM on CYP3A4; 12.5 µM on CYP2C9; 0.0009 µM in [7]; greater than 50 µM on CYP1A2. Moreover, the midpoint of inhibition on CYP2D6, the IC50, lay at 18.8 µM. The CLint scaled at 1 μM was 88.5 mL/min/kg in [1]; less than 17.3 mL/min/kg in series [3]; 20.7 mL/min/kg in series [4]; 127 mL/min/kg in series [5]; 22.5 mL/min/kg in series [6]. The AUC(0-inf) came to 5.19 µM·h in series [8] (setting [9]) and 12.5 µM·h in [8] (setting [10]). Also, the C0 in [8] (setting [9]) turned out to be 1300 nM. For the same molecule, in series [8] (setting [9]), the clearance came to 2.68 mL/min/kg. Moreover, the half-life was 6.93 h in series [8] (setting [9]) and 5.16 h in series [8] (setting [10]). The Vd in series [8] (0.5 mg/kg, 0.5 mpk intravenous injection, read-out: Vdss) turned out to be 1.52 L/kg. This molecule also returned a Cmax in [8] (setting [10]) of 958 nM. In addition, the time to peak (Tmax) in [8] (setting [10]) worked out at 8 h.
